Measurements: the NIST ThermoML archive (doi:10.1021/je8001255)

Test: an = ratio of the nth substance listed, in mol/kg
Conditions: 100 kPa, Liquid; for electrical conductivity: Alternating current cell with electrodes

O=S(=O)([O-])[O-].[Co+2] [cobalt(II) sulfate] + O
Conditions	electrical conductivity, 278.15 K [S/m]	electrical conductivity, 283.15 K [S/m]	electrical conductivity, 288.15 K [S/m]	electrical conductivity, 293.15 K [S/m]	electrical conductivity, 298.15 K [S/m]	electrical conductivity, 303.15 K [S/m]	electrical conductivity, 308.15 K [S/m]	mass density, 298.15 K [kg/m3]
a1 = 0.00551	0.0574	0.066	0.0749	0.084	0.0933	0.103	0.112	997.94
a1 = 0.02535	0.2	0.229	0.26	0.291	0.322	0.354	0.385	1001.16
a1 = 0.05135	0.338	0.388	0.439	0.491	0.544	0.597	0.649	1005.36
a1 = 0.1014	0.58	0.665	0.752	0.841	0.93	1.02	1.11	1013.44
a1 = 0.2522	1.19	1.36	1.54	1.72	1.9	2.09	2.27	1038.18
a1 = 0.4949	1.97	2.25	2.55	2.86	3.16	3.47	3.78	1079.59
a1 = 0.7706	2.63	3.03	3.43	3.85	4.27	4.7	5.12	1129.58
a1 = 0.9827	2.99	3.44	3.91	4.39	4.89	5.39	5.89	1170.36
a1 = 1.151	3.17	3.66	4.17	4.7	5.23	5.78	6.33	1204.34
a1 = 1.257	3.23	3.73	4.26	4.81	5.37	5.94	6.52	1227.86
a1 = 1.519	3.19	3.71	4.26	4.84	5.43	6.04	6.66	1286.2
a1 = 1.719	3.03	3.59	4.17	4.76	5.37	6	6.65	1331.86
